Test systems include ACHN; BT-549; CAKI-1; CCRF-CEM; HCC 2998; HCT-116; IGROV-1; LOX IMVI; MCF7; MDA-MB-435; Malme-3M; NCI-H23; OVCAR-5; OVCAR-8; RXF 393; SK-MEL-28; SK-MEL-2; SN12C; SNB-75; UO-31.
What all share (assay): inhibition of tumour cell growth, NCI panel, 48 h

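The compound was tested at five concentrations on cells cultured in 96-well plates, with a 48-hour exposure period. At the GI50, growth is halved.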 Active and inactive are the calls of the source. Cut-off read from the data, not from the text of the source: active = GI50 up to about 1.1 µM and inactive = higher.

With `CCOC(=O)/C=C(\C(=O)OCC)n1cc(C)c(=O)n(Cc2cnnn2COCCOC(C)=O)c1=O`, the GI50 with ACHN was 2.67 µM (inactive); in the test with BT-549, 5.52 µM (inactive); with CAKI-1 it was 3.13 µM (inactive); with CCRF-CEM it was 1.75 µM (inactive); with HCC 2998 it was 16.6 µM (inactive); in the test on HCT-116, 9.42 µM (inactive). For the same compound, the GI50 in the test with IGROV-1 was 8.45 µM (inactive); with LOX IMVI, 5.97 µM (inactive); with MCF7, 5.31 µM (inactive); in the test on MDA-MB-435 it was 8.97 µM (inactive); in the test with Malme-3M it was 1.48 µM (inactive); in the test on NCI-H23, 17.5 µM (inactive). Moreover, the GI50 with OVCAR-5 was 17.1 µM (inactive); in the test on OVCAR-8, 7.03 µM (inactive); in the test on RXF 393, 3.28 µM (inactive); in the test with SK-MEL-28, 9.89 µM (inactive); in the test on SK-MEL-2 it was 19.1 µM (inactive); in the test with SN12C, 16 µM (inactive). Besides, the GI50 is 18.4 µM (inactive) in the test on SNB-75 and 14.4 µM (inactive) with UO-31.
Consider `O=C(Nc1ccccc1)c1cc2c(cc1Cl)Sc1nccn1S2(=O)=O`, for which the GI50 with ACHN is 41.3 µM (inactive); with BT-549 it was 19.7 µM (inactive); with CAKI-1, 0.266 µM (active); in the test with CCRF-CEM, 17.3 µM (inactive); in the test with HCC 2998, 18.5 µM (inactive); in the test on HCT-116, 12.1 µM (inactive). The GI50 in the test on IGROV-1 was 20.2 µM (inactive); in the test with LOX IMVI it was 9.2 µM (inactive); in the test on MCF7, 12.6 µM (inactive); in the test with MDA-MB-435 it was 14.8 µM (inactive); with Malme-3M it was 30.1 µM (inactive); with NCI-H23, 18.4 µM (inactive). For the same compound, the GI50 in the test with OVCAR-5 was 27.2 µM (inactive); in the test with OVCAR-8 it was 58.2 µM (inactive); with RXF 393, 17.7 µM (inactive); in the test with SK-MEL-28 it was 18 µM (inactive); in the test with SK-MEL-2, 28.6 µM (inactive); with SN12C, 46.1 µM (inactive). The GI50 was 17.7 µM (inactive) with SNB-75 and 34 µM (inactive) in the test with UO-31.
For `CC1=NC(C)(COC(=O)C2(C)NC(C)(CO)CO2)COC1=O` (stereo not given), the GI50 in the test on ACHN, in the test with BT-549, with CAKI-1, in the test with CCRF-CEM, with HCC 2998 and in the test on HCT-116 was > 100 µM (inactive) in each case. The GI50 in the test with IGROV-1, in the test on LOX IMVI, in the test with MCF7, in the test on MDA-MB-435, with Malme-3M and in the test on NCI-H23 was > 100 µM (inactive) throughout. The GI50 in the test on OVCAR-5, in the test on OVCAR-8, in the test on RXF 393, in the test with SK-MEL-28, in the test on SK-MEL-2 and in the test on SN12C was > 100 µM (inactive) throughout. In addition, the GI50 in the test on SNB-75 and with UO-31 was > 100 µM (inactive) throughout.
As to `Clc1ccc(C2c3ccccc3-c3nc4ccccc4n32)cc1` (stereo not given), the GI50 in the test with ACHN was 23 µM (inactive); in the test on BT-549 it was 43.5 µM (inactive); in the test with CAKI-1, 37.1 µM (inactive); in the test on CCRF-CEM, 17.9 µM (inactive); in the test on HCC 2998, 18.9 µM (inactive); in the test on HCT-116, 5.09 µM (inactive). For the same compound, the GI50 in the test with IGROV-1 is 12.6 µM (inactive); with LOX IMVI, 19.7 µM (inactive); with MCF7 it was 18.3 µM (inactive); in the test on MDA-MB-435, 32.7 µM (inactive); with Malme-3M, 38.8 µM (inactive); in the test with NCI-H23, 15.5 µM (inactive). The GI50 is 25.4 µM (inactive) in the test on OVCAR-5; 18.2 µM (inactive) in the test on OVCAR-8; 5.26 µM (inactive) in the test with RXF 393; > 56.8 µM (inactive) in the test with SK-MEL-28; 22.2 µM (inactive) with SK-MEL-2; 42.1 µM (inactive) in the test on SN12C. Moreover, the GI50 in the test with SNB-75 was 24.3 µM (inactive); in the test with UO-31, 4.05 µM (inactive).
Take `Cc1ccc(S(=O)(=O)NNCNC(=O)c2ccccc2)cc1`: the GI50 with ACHN is > 100 µM (inactive); in the test with BT-549, > 100 µM (inactive); in the test on CAKI-1, > 100 µM (inactive); in the test with CCRF-CEM it was 17.6 µM (inactive); in the test on HCC 2998 it was > 100 µM (inactive); in the test on HCT-116, > 100 µM (inactive). Further, the GI50 in the test with IGROV-1 is > 100 µM (inactive); in the test on LOX IMVI, 68.7 µM (inactive); with MCF7, > 100 µM (inactive); in the test on MDA-MB-435, 32.4 µM (inactive); in the test with Malme-3M it was > 100 µM (inactive); with NCI-H23, > 100 µM (inactive). For the same compound, the GI50 with OVCAR-5, in the test on OVCAR-8, in the test on RXF 393, in the test on SK-MEL-28, in the test with SK-MEL-2 and in the test with SN12C was > 100 µM (inactive) throughout. Besides, the GI50 in the test on SNB-75 was > 100 µM (inactive); with UO-31, 82.8 µM (inactive).
With `COC(=O)CN1Cc2cc(C)cc(c2O)CN(CC(=O)OC)Cc2cc(C)cc(c2O)CN(CC(=O)OC)Cc2cc(C)cc(c2O)CN(CC(=O)OC)Cc2cc(C)cc(c2O)C1`, the GI50 is 11.5 µM (inactive) with ACHN; 24.8 µM (inactive) in the test on BT-549; 24.2 µM (inactive) in the test with CAKI-1; 2.03 µM (inactive) in the test on CCRF-CEM; 13.6 µM (inactive) in the test on HCC 2998; 11.1 µM (inactive) with HCT-116. The GI50 with IGROV-1 was 19.7 µM (inactive); with LOX IMVI, 7.33 µM (inactive); in the test on MCF7, 14.1 µM (inactive); with MDA-MB-435, 26.9 µM (inactive); in the test with Malme-3M, 12.2 µM (inactive); in the test with NCI-H23 it was 30.5 µM (inactive). Further, the GI50 with OVCAR-5 was 9.46 µM (inactive); with OVCAR-8, 11 µM (inactive); with RXF 393, 4.19 µM (inactive); in the test with SK-MEL-28 it was 21.9 µM (inactive); in the test on SK-MEL-2 it was 13.6 µM (inactive); with SN12C, 21.5 µM (inactive). Also, the GI50 in the test on SNB-75 was 12.4 µM (inactive); in the test with UO-31, 8.89 µM (inactive).
As to `Cc1ccc(S(=O)(=O)n2cc(C#N)c(C#N)c2)cc1`, the GI50 was 19.3 µM (inactive) in the test on ACHN; 20.6 µM (inactive) with BT-549; 26.1 µM (inactive) in the test with CAKI-1; 30.2 µM (inactive) with CCRF-CEM; 24.3 µM (inactive) in the test with HCC 2998; 31 µM (inactive) in the test on HCT-116. For the same compound, the GI50 in the test with IGROV-1 was 31.1 µM (inactive); with LOX IMVI it was 22.8 µM (inactive); in the test on MCF7, 22.3 µM (inactive); with MDA-MB-435, 19.8 µM (inactive); with Malme-3M it was 15.6 µM (inactive); in the test on NCI-H23 it was 29.8 µM (inactive). For the same compound, the GI50 with OVCAR-5 is 27.9 µM (inactive); in the test with OVCAR-8, 31.8 µM (inactive); in the test with RXF 393, 32.3 µM (inactive); with SK-MEL-28, 15.5 µM (inactive); in the test on SK-MEL-2 it was 24.3 µM (inactive); in the test with SN12C it was 29.1 µM (inactive). Besides, the GI50 in the test with SNB-75 was 32.7 µM (inactive); with UO-31, 26.9 µM (inactive).

The record behind these values is ChEMBL document CHEMBL1201862, “PubChem BioAssay data set” (2004).
